Data from patent US20080269173A1, “Composition for Stimulating Growth of Dermal Papilla Cells and Promoting Hair Follicle Growth Comprising Vitamin C Derivatives” (Trichogene Inc., priority 2005, published 2008).

How the values were obtained:
dermal papilla cells [1] = assay: RT-PCR gene expression (mRNA) in dermal papilla cells; type: cell-based, human; settings: 0.25 mM, 5 days
Experimental: The dermal papilla cells were incubated for 5 days in a medium including 0.25 mM Asc 2-P, and then their RNA was isolated using a TRIzol reagent (Gibco-BRL, Grand Island, N.Y.). cDNA was synthesized from the RNA using a cDNA synthesis kit containing superscript II reverse transcriptase and random hexamer (Gibco-BRL). The cDNA was amplified with sets of gene-specific primers (Table 1).
Gene expression levels of IGF-1 (insulin like growth factor 1), HGF (hepatocyte growth factor), VEGF (vascular endothelial growth factor), KGF (keratinocyte growth factor), collagen I, collagen III, versican and alkaline phosphatase (ALP) were analyzed in the present invention.

osteoblast = settings: Hata et al., 1988; cited from earlier work
human dermal fibroblast = settings: Hata et al., 1988; cited from earlier work
[2] = tested on: versican in the hair follicle; assay: Immunostaining of versican in hair follicle; type: cell-based, human; settings: 0.1 mM and 1 mM, 5 days
Experimental: The hair follicles were incubated for 5 days in the media treated with 0.1 mM and 1 mM Asc 2-P, and then their immunostaining experiments were conducted against versican.

[3] = aqueous solution, general culture conditions; cited from earlier work
[4] = tested on: human anagen hair follicle; assay: In vitro growth of isolated human anagen hair follicles (organ culture, length measurement); type: cell-based; settings: 0.05 mM and 0.25 mM, 9 days, Williams E medium; P<0.05
Experimental: Biopsy samples were obtained from a […] region of scalp of a patient with androgenic alopecia during the hair transplantation operation with their approval in the Kyungpook National University hospital. The hair follicles were isolated and incubated according to the known method (Philpott et al., J Cell Sci. 97:463-471, 1990).
The anagen hair follicles were isolated from the scalp under a stereoscopic binocular microscope. Upper one third of the isolated anagen hair follicles were cut out, and lower two third of them were incubated at 37° C. in a Williams E medium (Sigma, USA) under a 5% CO2 atmosphere. The hair follicles were incubated for 9 days in a medium including Asc 2-P, and then their length was measured using a stereoscopic microscope.

dermal papilla cells [5] = assay: Growth of cultured dermal papilla cells (MTT method); type: cell-based, human; settings: 0.25 mM, 5 days
Experimental: The dermal papilla was isolated from a bulb of the severed hair follicles under the binocular microscope, and then transferred into a tissue culture dish. The dermal papilla was cultured at 37° C. for 5 days under a 5% CO2 atmosphere in the DMEM medium supplemented with penicillin (100 U/ml), streptomycin (100 μg/ml) and 20% heat-inactivated fetal bovine serum (FBS, Hyclone, USA), and then subcultured in the same condition. The dermal papilla cells were kept in the DMEM including 10% FBS after the subculture. The secondary subcultured cells were used in the present invention.
The dermal papilla cells were incubated overnight at a density of 5,000 cells/well in a 96-well plate containing a DMEM medium supplemented with 10% FBS. The medium was then exchanged to the DMEMs including varied concentrations of Asc 2-P and incubated for 5 days, and then the cell number was measured using a MTT method.

SMILES: O=C1O[C@H]([C@@H](O)CO)C(O)=C1OP(=O)(O)O [Asc 2-P, L-ascorbic acid-2-phosphate magnesium]
- HGF mRNA (dermal papilla cells [1]): no effect
- IGF-1 mRNA (dermal papilla cells [1]): increased
- KGF mRNA (dermal papilla cells [1]): no effect
- VEGF mRNA (dermal papilla cells [1]): no effect
- alkaline phosphatase (ALP) mRNA (dermal papilla cells [1]): increased
- collagen I mRNA (dermal papilla cells [1]): no effect
- collagen III mRNA (dermal papilla cells [1]): no effect
- versican mRNA (dermal papilla cells [1]): increased
- growth of osteoblast (osteoblast): stimulates growth
- growth of human dermal fibroblast (human dermal fibroblast): stimulates growth
- expression of versican in the hair follicle (immunostaining) [2]: increased
- stability [3]: more stable than the vitamin C
- growth (length) of hair follicle [4]: significantly grown
- growth of dermal papilla cells (cell number, MTT) (dermal papilla cells [5]; 0.05 mM, 1 mM and 5 mM, P<0.05): significantly stimulated growth
- growth of dermal papilla cells relative to the control group (dermal papilla cells [5]; MTT): 2.4 times

SMILES: O=C1O[C@H]([C@@H](O)CO)C(O)=C1O [vitamin C, L-ascorbic acid]
- growth of osteoblast (osteoblast): stimulates growth
- growth of human dermal fibroblast (human dermal fibroblast): stimulates growth
- stability [3]: rapidly oxidized and degraded
